What was measured:
[1] = target: T1, soluble guanylate cyclase (sGC) (Homo sapiens, UniProt Q02108+Q02153); assay: sGC-HEK-cGMP assay with LC/MS detection; type: cell-based; conditions: HEK293 cells, 10 μM DETA-NONOate; concentration eliciting 50% of high control response (30 μM Compound Y); read-out: sGC_HEK_LC MS EC50 Abs
T1 construct: endogenously expressing soluble guanylate cyclase (sGC); endogenous in cells; host or cells: HEK293
T1 sequence (Q02153 1-619): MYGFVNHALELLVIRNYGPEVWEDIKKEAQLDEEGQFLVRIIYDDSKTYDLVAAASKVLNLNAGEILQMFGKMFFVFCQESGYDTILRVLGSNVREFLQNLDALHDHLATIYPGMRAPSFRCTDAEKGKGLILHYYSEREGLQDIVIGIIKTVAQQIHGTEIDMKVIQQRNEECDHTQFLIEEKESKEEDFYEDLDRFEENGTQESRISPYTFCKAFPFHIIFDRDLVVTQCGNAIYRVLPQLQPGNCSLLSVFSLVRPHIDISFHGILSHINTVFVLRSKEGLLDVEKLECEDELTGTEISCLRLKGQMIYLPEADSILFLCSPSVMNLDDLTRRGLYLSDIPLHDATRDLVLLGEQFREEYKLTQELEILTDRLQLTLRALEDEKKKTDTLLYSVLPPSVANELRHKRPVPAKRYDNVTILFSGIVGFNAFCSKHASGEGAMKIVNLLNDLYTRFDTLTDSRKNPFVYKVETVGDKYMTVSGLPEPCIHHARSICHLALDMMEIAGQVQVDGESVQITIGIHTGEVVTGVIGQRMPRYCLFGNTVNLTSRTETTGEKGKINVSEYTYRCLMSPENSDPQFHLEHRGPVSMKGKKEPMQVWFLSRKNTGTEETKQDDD
T1 sequence (Q02108 1-690): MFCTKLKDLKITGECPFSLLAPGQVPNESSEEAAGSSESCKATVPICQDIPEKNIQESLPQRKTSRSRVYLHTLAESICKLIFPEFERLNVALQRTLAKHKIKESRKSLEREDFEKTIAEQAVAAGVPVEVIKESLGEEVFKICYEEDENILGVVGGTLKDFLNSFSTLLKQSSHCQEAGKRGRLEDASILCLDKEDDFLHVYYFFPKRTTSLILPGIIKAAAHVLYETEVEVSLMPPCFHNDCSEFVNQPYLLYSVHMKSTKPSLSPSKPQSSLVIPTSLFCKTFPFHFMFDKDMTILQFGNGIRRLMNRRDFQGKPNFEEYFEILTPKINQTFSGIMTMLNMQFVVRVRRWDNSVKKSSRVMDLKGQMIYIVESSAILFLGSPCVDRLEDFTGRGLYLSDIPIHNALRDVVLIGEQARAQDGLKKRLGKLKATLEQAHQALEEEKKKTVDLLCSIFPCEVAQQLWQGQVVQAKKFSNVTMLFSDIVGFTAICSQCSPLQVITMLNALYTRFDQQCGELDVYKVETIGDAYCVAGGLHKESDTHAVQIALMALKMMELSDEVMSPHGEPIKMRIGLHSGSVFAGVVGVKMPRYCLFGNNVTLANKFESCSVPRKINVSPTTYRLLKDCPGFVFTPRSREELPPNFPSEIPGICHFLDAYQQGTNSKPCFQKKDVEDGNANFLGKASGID
Protocol: Human embryonic kidney cells (HEK293), endogenously expressing soluble guanylate cyclase (sGC), were used to evaluate the activity of test compounds. Compounds stimulating the sGC enzyme should cause an increase in the intracellular concentration of cGMP. HEK 293 cells were seeded in Dulbecco's Modification of Eagle's Medium supplemented with fetal bovine serum (10% final) and penicillin (100 U/mL)/streptomycin (100 ug/mL) in a […] at a density of 1.5×10^4 cells/well in a poly-D-lysine coated 384 well flat bottom plate. Cells were incubated overnight at 37° C. in a humidified chamber with 5% CO2. Medium was aspirated and cells were washed with 1× Hank's Buffered Saline Salt Solution […]. Cells were then incubated for 15 minutes at 37° C. with 50 μL of a 0.5 mM 3-isobutyl-1-methylxanthine (IBMX) solution. Test article and Diethylenetriamine NONOate (DETA-NONOate) solutions (x μM concentration for test article solution and 10 μM concentration for DETA-NONOate solution; wherein x is one of the following concentrations);
were then added to the assay mixture and the resulting mixture incubated at 37° C. for 20 minutes. After the 20 minute incubation, the assay mixture was aspirated and 10% acetic acid containing 150 ng/mL+3-cGMP (internal standard for LCMS) (50 μL) was added to the cells. The plate was incubated at 4° C. for 30 minutes in the acetic acid solution to stop the reaction and lyse the cells. The plates were then centrifuged at 1,000g for 3 minutes at 4° C. and the supernatant transferred to a clean reaction plate for LCMS analysis.
cGMP concentrations were determined from each sample using the LCMS conditions below (Table 2) and calculated standard curve. The standard curve was prepared in 10% acetic acid with 150 ng/mL+3cGMP (isotopically labelled cGMP with a weight 3 units higher than wild type) with the following final concentrations of cGMP in ng/mL: 1, 5, 10, 50, 100, 250, 500, 1000, 2000.
Data were normalized to a high control using the following equation: 100*(Sample−Low Control)/(High Control−Low Control), where the low control is the average of 16 samples treated with 1% DMSO, and the high control is the average of 16 samples treated with 30 μM of Compound Y depicted below. Data were fit using a 4-parameter fit (log(agonist) vs. response−variable slope) using GraphPad Prism Software v.5. n=2 for all compounds. The Absolute EC50 was interpolated from the curve fit and is defined as the concentration at which a given compound elicits 50% of the high control response. Compounds failing to elicit a minimum response of 50% are reported as >30 μM. For compounds run in duplicate or n higher than 2, the result herein given is the geometric mean of the several results obtained.
Code definitions for the whole cell HEK assay values, expressed as Absolute EC50 which is defined as the concentration at which a given compound elicits 50% of the high control response (Compound Y). Compounds failing to elicit a minimum response of 50% are reported as *.

[2] = target: T2, human recombinant soluble guanylate cyclase enzyme α1β1 (h sGC) (Homo sapiens, UniProt Q02108+Q02153); assay: Purified human recombinant sGC α1β1 enzyme assay in the presence of DETA-NONOate (cGMP HTRF); type: biochemical; conditions: 30 uM DETA NONOate; concentration eliciting 50% of high control response (30 uM Compound Y); read-out: sGC_Enz_HTRF_a1b1 EC50 Abs
T2 construct: purchased Enzo Life Sciences ALX-201-177
T2 sequence (Q02108 1-690): T1 sequence (Q02108 1-690)
T2 sequence (Q02153 1-619): T1 sequence (Q02153 1-619)
Protocol: Purified human recombinant soluble guanylate cyclase enzyme α1β1 (h sGC) obtained from Enzo Life Sciences (P/N: ALX-201-177) was used to evaluate the activity of test compounds. The assay reactions contained 0.1 M Tris (pH 8.0), 0.5 mg/mL BSA, 2 mM DTT, 4 mM MgCl2, 30 uM DETA NONOate (Enzo Life Science P/N: ALX-430-014), and 12.5 ng/ml human soluble guanylate cyclase enzyme. […] Guanosine 5′-triphosphate (Sigma-Aldrich P/N: G8877) was added to a final concentration of 300 μM and enzyme reactions were incubated (100 μL, 384-well plate format) at 37° C. for 20 minutes. The controls contained 3% DMSO (low control), or 30 uM of Compound Y (high control). After the 20 minute incubation, the reaction was stopped with the addition of 100 μL of ice cold 20% acetic acid.
cGMP concentrations in all samples were determined using the cGMP HTRF (Cisbio P/N: 62GM2PEC) assay per manufacturer's instructions. A cGMP standard curve was fit using a 4-parameter fit (log(inhibitor) vs. response—variable slope) using GraphPad Prism Software v.6. Samples were diluted appropriately to ensure that values fell within the linear range of the standard curve. The EC50 was interpolated from the curve fit and is defined as the concentration at which the compound elicits 50% of the maximal response of the 30 uM of Compound Y, the high control compound.

[3] = system: sickle mice; conditions: oral, high doses; cited from earlier work
[4] = system: adult sickle cell disease patients; conditions: infusions; cited from earlier work
[5] = system: mdx mouse; conditions: cited from earlier work
[6] = system: dystrophin-deficient zebra fish; conditions: cited from earlier work
[7] = system: sickle cell disease patients with PHT; conditions: cited from earlier work
[8] = system: sickle cell disease patients with VOE; conditions: cited from earlier work
[9] = system: Guinea pig tracheal smooth muscle (GPTSM) contraction; assay: Electrical field stimulated guinea pig tracheal smooth muscle contraction (ex vivo); conditions: sub-maximal EFS, cumulative dose response curve, three animals pooled; read-out: IC50, inhibition of EFS-induced tracheal smooth muscle contraction
Protocol: Electrical Field Stimulated Guinea Pig Tracheal Smooth Muscle In Vitro (ex vivo) model for the Assessment of Bronchodilation.
It is possible to assess the bronchodilating effects of sGC stimulators by using the system described below. […]
On each experimental day, a guinea pig is killed by exposure to a rising concentration of CO2 and the trachea removed. […] Tissues are washed with Kreb's buffer and stimulated using the previously determined sub-maximal voltage for 1 hour to establish a stable baseline contraction prior to assessment of compound activity.
A cumulative dose response curve (DRC) to each test substance is then performed and changes in smooth muscle contraction measured. The effect of each test substance in each experiment is expressed as a percentage inhibition of the baseline contraction, normalized to the relevant vehicle controls. […] The data from all three experiments are pooled, the DRC plotted, and the test substance potency and efficacy determined.

Compound: CC(C)Oc1cc(-c2nc(N)c3c(n2)NC(=O)C3(C)C(N)=O)nn1Cc1ccccc1F (stereo not drawn) [Compound I-39, 4-amino-2-(5-isopropoxy-1-(2-fluorobenzyl)-1H-pyrazol-3-yl)-5-methyl-6-oxo-6,7-dihydro-5H-pyrrolo[2,3-d]pyrimidine-5-carboxamide]
- EC50 [1]: > 30 µM
- EC50 [2]: > 5 µM

Compound: N=C(N)NCCC[C@H](N)C(=O)O [L-aminine]
- Gardos channel activity, dense cell formation, hemolysis, vascular reactivity [3]: decrease Gardos channel activity, dense cell formation and homolysis, as well as functional improvements in vascular reactivity

Compound: COc1nc(-c2ncc(F)c(O)n2)nn1Cc1ccccc1F [Compound I-3]
- EC50 [1]: > 30 µM
- EC50 [2]: > 30 µM

Compound: O=NO [sodium nitrite]
- forearm blood flow [4]: enhanced forearm blood flow

Compound: CCCc1nn(C)c2c(=O)[nH]c(-c3cc(S(=O)(=O)N4CCN(C)CC4)ccc3OCC)nc12 [sildenafil]
- cardiac dynamics ([5]; mdx mice): improve cardiac dynamics
- muscle ischemia, injury and fatigue after a brief bout of exercise ([5]; mdx mouse): alleviate muscle ischemia, as well as injury and fatigue
- dystrophic skeletal muscle and survival [6]: rescue dystrophic skeletal muscle and prolong survival
- PAP and exercise capacity ([7]; preliminary studies, sickle cell disease patients with severe PHT): improvements in PAP and exercise capacity
- serious side effects (Walk-PHaSST trial) ([7]; sickle cell disease patients with Doppler-defined PHT, trial stopped prematurely): higher frequency of serious side effects, including increased rates of VOE, headache, and visual disturbance

Compound: nitric oxide [inhaled NO]
- use of parenteral morphine ([8]; randomized placebo controlled trial, acute VOE, adult patients, compared with placebos): trend towards decreased use of parenteral morphine
- pain scores ([8]; randomized placebo controlled trial, acute VOE, adult patients): significantly reduced pain scores
- pain scores, analgesic requirements, hospital stay ([8]; sickle cell disease children presenting with VOE): trends toward lower pain scores, decreased analgesic requirements and a shorter hospital stay

Compound: CC(C)[N+]1(C)[C@@H]2CC[C@H]1C[C@@H](OC(=O)C(CO)c1ccccc1)C2 (stereo partly drawn) [Ipratropium bromide]
- IC50 [9]: 0.00086 µM

— patent US20160311826A1, “SGC STIMULATORS” (IRONWOOD PHARMACEUTICALS, INC., priority 2013, published 2016)
